Four compounds from patent US20100040734A1, “Cacao Husk-Derived Water-Soluble, Dietary Fiber, Process For Its Production, Foods and Beverages Containing It And Methods For Their Preparation” (FUJI OIL COMPANY, LIMITED, priority 2000, published 2010) can be followed below.

What all share (assay): microbiostatic property by turbidity in standard liquid medium
Common to all, as to type: cell-based
Common to all, as to settings: 35° C.

For one experiment, the system named is Aspergillus oryzae. The source says:
(§1) For evaluation of the shelf-life extending property (microbiostatic property), there was used a standard liquid medium (pH 7.2) containing the cacao husk-derived water-soluble dietary fiber of the invention at 0%, 0.5% or 1.0% with suitable amounts of shelf stability increasing substances, and using Escherichia coli, Aspergilius oryzae and Saccharomyces cerevisiae as the target strains. […] As the turbidity of the medium increases with growth of the cells, a test substance with a microbiostatic property will inhibit the cell growth and result in less turbidity. The turbidity was determined by measuring the absorbance at a wavelength of 610 nm (the spectrophotometer used was PTL-396S by JASCO Co., Ltd.), and the units for the turbidity were based on JIS1010.

The next experiment concerns Saccharomyces cerevisiae.
Description: as §1

For a further experiment, the system named is Escherichia coli. How it is done: […] The turbidity was determined by measuring the absorbance at a wavelength of 610 nm (the spectrophotometer used was PTL-396S by JASCO Co., Ltd.), and the units for the turbidity were based on JIS1010.

As for `CCO` [Ethanol], the turbidity is reported as 17 unit with Aspergillus oryzae (added at 0.05%, days stored 1); 128 unit with Aspergillus oryzae (added at 0.05%, days stored 2); 328 unit with Aspergillus oryzae (added at 0.05%, days stored 3); 10 unit with Aspergillus oryzae (added at 0.1%, days stored 1); 112 unit with Aspergillus oryzae (added at 0.1%, days stored 2); 251 unit in the experiment with Aspergillus oryzae (added at 0.1%, days stored 3). The turbidity came out at 475 unit with Aspergillus oryzae (added at 0.1%, days stored 4); 59 unit in the experiment with Saccharomyces cerevisiae (added at 0.05%, days stored 1); 251 unit in the experiment with Saccharomyces cerevisiae (added at 0.05%, days stored 2); 487 unit in the experiment on Saccharomyces cerevisiae (added at 0.05%, days stored 3); 36 unit in the experiment on Saccharomyces cerevisiae (added at 0.1%, days stored 1); 182 unit with Saccharomyces cerevisiae (added at 0.1%, days stored 2). Moreover, the turbidity in the experiment with Saccharomyces cerevisiae (added at 0.1%, days stored 3) is 411 unit; with Escherichia coli (added at 0.05%, days stored 1), 104 unit; in the experiment with Escherichia coli (added at 0.05%, days stored 2), 441 unit; in the experiment with Escherichia coli (added at 0.1%, days stored 1), 112 unit; with Escherichia coli (added at 0.1%, days stored 2) it was 382 unit; in the experiment on Escherichia coli (added at 0.1%, days stored 3), 455 unit.

Regarding `O=C1O[C@H]([C@@H](O)CO)C([O-])=C1O.[Na+]` [Na ascorbate], the turbidity with Aspergillus oryzae (added at 0.1%, days stored 1) came to 107 unit; in the experiment on Aspergillus oryzae (added at 0.1%, days stored 2), 370 unit; in the experiment with Aspergillus oryzae (added at 0.5%, days stored 1) it was 58 unit; with Aspergillus oryzae (added at 0.5%, days stored 2), 178 unit; with Aspergillus oryzae (added at 0.5%, days stored 3), 422 unit; in the experiment on Saccharomyces cerevisiae (added at 0.1%, days stored 1), 122 unit. Besides, the turbidity stood at 391 unit with Saccharomyces cerevisiae (added at 0.1%, days stored 2); 76 unit with Saccharomyces cerevisiae (added at 0.5%, days stored 1); 251 unit in the experiment on Saccharomyces cerevisiae (added at 0.5%, days stored 2); 433 unit in the experiment with Saccharomyces cerevisiae (added at 0.5%, days stored 3); 115 unit in the experiment with Escherichia coli (added at 0.1%, days stored 1); 402 unit in the experiment with Escherichia coli (added at 0.1%, days stored 2). For the same compound, the turbidity with Escherichia coli (added at 0.5%, days stored 1) worked out at 18 unit; in the experiment with Escherichia coli (added at 0.5%, days stored 2) it was 211 unit; in the experiment with Escherichia coli (added at 0.5%, days stored 3) it was 315 unit; with Escherichia coli (added at 0.5%, days stored 4), 452 unit.

With `[Cl-].[Na+]` [Salt], the turbidity was 99 unit in the experiment with Aspergillus oryzae (added at 1.0%, days stored 1); 487 unit in the experiment with Aspergillus oryzae (added at 1.0%, days stored 2); 68 unit in the experiment with Aspergillus oryzae (added at 2.0%, days stored 1); 272 unit with Aspergillus oryzae (added at 2.0%, days stored 2); 429 unit with Aspergillus oryzae (added at 2.0%, days stored 3); 112 unit in the experiment on Saccharomyces cerevisiae (added at 1.0%, days stored 1). Further, the turbidity with Saccharomyces cerevisiae (added at 1.0%, days stored 2) was 425 unit; in the experiment with Saccharomyces cerevisiae (added at 2.0%, days stored 1) it was 24 unit; in the experiment on Saccharomyces cerevisiae (added at 2.0%, days stored 2), 377 unit; in the experiment on Escherichia coli (added at 1.0%, days stored 1), 141 unit; in the experiment with Escherichia coli (added at 1.0%, days stored 2), 524 unit; in the experiment with Escherichia coli (added at 2.0%, days stored 1) it was 31 unit. The compound further had a turbidity in the experiment with Escherichia coli (added at 2.0%, days stored 2) of 353 unit.

Glycerin fatty acid ester: the turbidity came to 86 unit with Aspergillus oryzae (added at 0.01%, days stored 1); 417 unit in the experiment with Aspergillus oryzae (added at 0.01%, days stored 2); 53 unit in the experiment with Aspergillus oryzae (added at 0.05%, days stored 1); 199 unit in the experiment on Aspergillus oryzae (added at 0.05%, days stored 2); 418 unit in the experiment with Aspergillus oryzae (added at 0.05%, days stored 3); 79 unit in the experiment on Saccharomyces cerevisiae (added at 0.01%, days stored 1). Also, the turbidity stood at 281 unit in the experiment on Saccharomyces cerevisiae (added at 0.01%, days stored 2); 485 unit in the experiment on Saccharomyces cerevisiae (added at 0.01%, days stored 3); 38 unit in the experiment on Saccharomyces cerevisiae (added at 0.05%, days stored 1); 107 unit in the experiment on Saccharomyces cerevisiae (added at 0.05%, days stored 2); 375 unit with Saccharomyces cerevisiae (added at 0.05%, days stored 3); 113 unit in the experiment with Escherichia coli (added at 0.01%, days stored 1). Moreover, the turbidity is 415 unit in the experiment on Escherichia coli (added at 0.01%, days stored 2); 47 unit in the experiment with Escherichia coli (added at 0.05%, days stored 1); 196 unit in the experiment with Escherichia coli (added at 0.05%, days stored 2); 305 unit in the experiment with Escherichia coli (added at 0.05%, days stored 3); 481 unit with Escherichia coli (added at 0.05%, days stored 4).
